Experiments:
[1] = biological target: T1, HCV NS5B RdRp genotype 1b (Hepatitis C virus genotype 1b, UniProt Q9WMX2); assay: HCV NS5B RdRp enzyme assay (preincubation protocol); type: biochemical
T1 construct: The protein was expressed with an 18 amino acid C-terminal truncation to enhance the solubility; made in house; host or cells: E. coli BL21 (DE3)
Experimental: HCV NS5B RdRp cloning, expression, and purification. The cDNA encoding the NS5B protein of HCV, genotype 1b, was cloned into the pET21a expression vector. The protein was expressed with an 18 amino acid C-terminal truncation to enhance the solubility. The E. coli competent cell line BL21 (DE3) was used for expression of the protein. Cultures were grown at 37° C. for ˜4 hours until the cultures reached an optical density of 2.0 at 600 nm. The cultures were cooled to 20° C. and induced with 1 mM IPTG. Fresh ampicillin was added to a final concentration of 50 μg/ml and the cells were grown overnight at 20° C.
Cell pellets (3 L) were lysed for purification to yield 15-24 mgs of purified NS5B. The lysis buffer consisted of 20 mM Tris-HCl, pH 7.4, 500 mM NaCl, 0.5% triton X-100, 1 mM DTT, 1 mM EDTA, 20% glycerol, 0.5 mg/ml lysozyme, 10 mM MgCl2, 15 ug/ml deoxyribonuclease I, and Complete TM protease inhibitor tablets (Roche). After addition of the lysis buffer, frozen cell pellets were resuspended using a tissue homogenizer. To reduce the viscosity of the sample, aliquots of the lysate were sonicated on ice using a microtip attached to a Branson sonicator. The sonicated lysate was centrifuged at 100,000×g for 1 hr at 4° C. and filtered through a 0.2 μm filter unit (Corning).
The protein was purified using three sequential chromatography steps: Heparin sepharose CL-6B, polyU sepharose 4B, and Hitrap SP sepharose (Pharmacia). The chromatography buffers were identical to the lysis buffer but contained no lysozyme, deoxyribonuclease I, MgCl2 or protease inhibitor and the NaCl concentration of the buffer was adjusted according to the requirements for charging the protein onto the column. Each column was eluted with a NaCl gradient which varied in length from 5-50 column volumes depending on the column type. After the final chromatography step, the resulting purity of the enzyme is >90% based on SDS-PAGE analysis. The enzyme was aliquoted and stored at −80° C.
Standard HCV NS5B RdRp enzyme assay. HCV RdRp genotype 1b assays were run in a final volume of 60 μl in 96 well plates (Costar 3912). The assay buffer is composed of 20 mM Hepes, pH 7.5, 2.5 mM KCl, 2.5 mM MgCl2, 1 mM DTT, 1.6 U RNAse inhibitor (Promega N2515), 0.1 mg/ml BSA (Promega R3961), and 2% glycerol. All compounds were serially diluted (3-fold) in DMSO and diluted further in water such that the final concentration of DMSO in the assay was 2%. HCV RdRp genotype 1b enzyme was used at a final concentration of 28 nM. A polyA template was used at 6 nM, and a biotinylated oligo-dT12 primer was used at 180 nM final concentration. Template was obtained commercially (Amersham 27-4110). Biotinylated primer was prepared by Sigma Genosys. 3H-UTP was used at 0.6 μCi (0.29 μM total UTP). Reactions were initiated by the addition of enzyme, incubated at 30° C. for 60 min, and stopped by adding 25 μl of 50 mM EDTA containing SPA beads (4 μg/μl, Amersham RPNQ 0007). Plates were read on a Packard Top Count NXT after >1 hr incubation at room temperature.
Modified HCV NS5B RdRp enzyme assay. A modified enzyme assay was performed essentially as described for the standard enzyme assay except for the following: The biotinylated oligo dT12 primer was precaptured on streptavidin-coated SPA beads by mixing primer and beads in assay buffer and incubating at room temperature for one hour. Unbound primer was removed after centrifugation. The primer-bound beads were resuspended in 20 mM Hepes buffer, pH 7.5 and used in the assay at final concentrations of 20 nM primer and 0.67 μg/μl beads. Order of addition in the assay: enzyme (14 nM) was added to diluted compound followed by the addition of a mixture of template (0.2 nM), 3H-UTP (0.6 μCi, 0.29 μM), and primer-bound beads, to initiate the reaction; concentrations given are final. Reactions were allowed to proceed for 4 hours at 30° C.
IC50 values for compounds were determined using seven different [I]. […]

HCV replicon cells = assay: HCV replicon FRET assay; type: cell-based; details: Hepatitis C virus
Excerpt: FRET Assay Preparation. To perform the HCV FRET screening assay, 96-well cell culture plates were used. The FRET peptide (Anaspec, Inc.) (Taliani et al., Anal. Biochem. 1996, 240, 60-67) contains a fluorescence donor, EDANS, near one end of the peptide and an acceptor, DABCYL, near the other end. The fluorescence of the peptide is quenched by […] resonance energy transfer (RET) between the donor and the acceptor, but as the NS3 protease cleaves the peptide the products are released from RET quenching and the fluorescence of the donor becomes apparent. The assay reagent was made as follows: 5× cell Luciferase cell culture lysis reagent from Promega (#E153A) diluted to 1× with dH2O, NaCl added to 150 mM final, the FRET peptide diluted to 20 uM final from a 2 mM stock.
To prepare plates, HCV replicon cells, with or without a Renilla luciferase reporter gene, were trypsinized and placed into each well of a 96-well plate with titrated test compounds added in columns 3 through 12; columns 1 and 2 contained a control compound (HCV protease inhibitor), and the bottom row contained cells without compound. The plates were then placed in a CO2 incubator at 37° C.
Assays. Subsequent to addition of the test compounds described above (FRET Assay Preparation), at various times the plate was removed and Alamar blue solution (Trek Diagnostics, #00-100) was added per well as a measure of cellular toxicity. After reading in a Cytoflour 4000 instrument (PE Biosystems), plates were rinsed with PBS and then used for FRET assay by the addition of 30 ul of the FRET peptide assay reagent described above (FRET Assay Preparation) per well. The plate was then placed into the Cytoflour 4000 instrument which had been set to 340 excite/490 emission, automatic mode for 20 cycles and the plate read in a kinetic mode. Typically, the signal to noise using an endpoint analysis after the reads was at least three-fold. Alternatively, after Alamar blue reading, plates were rinsed with PBS, 50 ul of DMEM (high glucose) without phenol red was added and plates were then used for luciferase assay using the Promega Dual-Glo Luciferase Assay System.
Compound analysis was determined by quantification of the relative HCV replicon inhibition and the relative cytotoxicity values. To calculate cytoxicity values, the average Alamar Blue fluorescence signals from the control wells were set as 100% non-toxic. The individual signals in each of the compound test wells were then divided by the average control signal and multiplied by 100% to determine […]. To calculate the HCV replicon inhibition values, an average background value was obtained from the two wells containing the highest amount of HCV protease inhibitor at the end of the assay period. These numbers were similar to those obtained from naïve Huh-7 cells.
The background numbers were then subtracted from the average signal obtained from the control wells and this number was used as 100% activity. The individual signals in each of the compound test wells were then divided by the averaged control values after background subtraction and multiplied by 100% to determine percent activity. EC50 values for a protease inhibitor titration were calculated as the concentration which caused a 50% reduction in FRET or luciferase activity. The two numbers generated for the compound plate, percent cytotoxicity and percent activity were used to determine compounds of interest for further analysis.

T1 sequence (Q9WMX2 2420-2992): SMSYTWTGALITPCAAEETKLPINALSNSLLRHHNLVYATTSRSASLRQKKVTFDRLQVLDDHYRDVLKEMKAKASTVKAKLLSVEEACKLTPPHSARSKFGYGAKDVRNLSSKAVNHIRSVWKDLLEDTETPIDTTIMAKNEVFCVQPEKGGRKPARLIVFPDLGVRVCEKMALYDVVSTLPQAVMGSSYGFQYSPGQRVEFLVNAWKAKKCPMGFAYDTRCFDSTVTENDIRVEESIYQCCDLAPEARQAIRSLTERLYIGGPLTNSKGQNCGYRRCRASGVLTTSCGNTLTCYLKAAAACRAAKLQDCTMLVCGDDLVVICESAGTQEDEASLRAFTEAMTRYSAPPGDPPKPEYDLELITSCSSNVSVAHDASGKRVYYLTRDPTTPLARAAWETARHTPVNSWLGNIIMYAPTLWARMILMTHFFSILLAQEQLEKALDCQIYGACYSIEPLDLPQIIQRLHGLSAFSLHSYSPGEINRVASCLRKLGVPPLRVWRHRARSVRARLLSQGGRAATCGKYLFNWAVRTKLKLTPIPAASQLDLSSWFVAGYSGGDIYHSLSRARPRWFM

SMILES	IC50 [1] [µM]	EC50 (HCV replicon cells) [µM]
CCOC(=O)/C=C/c1ccc(NC(=O)C2(NC(=O)c3ccc4c(C5CCCCC5)c(-c5ccccc5)n5c4c3OCC5)CCCC2)cc1	0.03 to 1	> 1
CN(C)S(=O)(=O)NC(=O)c1ccc2c(C3CCCCC3)c(-c3ccccc3)n3c2c1CCC3C(=O)N1CCOCC1 (stereo not drawn)	1 to 10	1 to 10
COC(=O)c1ccc2c(C3CCCCC3)c(-c3ccccc3)n3c2c1CCC3	> 10	> 0.12
O=C(O)c1ccc2c(C3CCCCC3)c(-c3ccccc3)n3c2c1CCC3C(=O)O (stereo not drawn)	> 1	> 10
COc1ccc(-c2c(C3CCCCC3)c3ccc(C(=O)NC4(C(=O)Nc5ccc(C=CC(=O)O)cc5)CCCC4)c4c3n2CCO4)cc1	0.03 to 1	0.03 to 1
COc1ccc(-c2c(C3CCCCC3)c3ccc(C(=O)O)c4c3n2CCO4)cc1	0.03 to 1	1 to 10
COC(=O)c1ccc2c(C3CCCCC3)c(-c3ccccc3)n3c2c1CCC3C(=O)OC (stereo not drawn)	> 10	> 1
COC(=O)c1ccc2c(C3CCCCC3)c(-c3ccccc3)n3c2c1CCC3C(=O)O (stereo not drawn)	> 1	> 0.12
CCOC(=O)/C=C/c1ccc(NC(=O)C2(NC(=O)c3ccc4c(C5CCCCC5)c(-c5ccccc5)n5c4c3CCC5C(=O)N3CCOCC3)CCCC2)cc1 (stereo not drawn)	1 to 10	0.03 to 1
COC(=O)c1ccc2c(C3CCCCC3)c(-c3ccccc3)n3c2c1C=CCC3	> 10	> 0.12
O=C(O)c1ccc2c(C3CCCCC3)c(-c3ccccc3)n3c2c1CCCC3	> 1	> 1
O=C(O)c1ccc2c(C3CCCCC3)c(-c3ccccc3)n3c2c1CCC3C(=O)N1CCOCC1 (stereo not drawn)	0.03 to 1	0.03 to 1
O=C(O)/C=C\c1ccc(NC(=O)C2(NC(=O)c3ccc4c(C5CCCCC5)c(-c5ccccc5)n5c4c3OCC5)CCCC2)cc1	0.03 to 1	0.03 to 1
O=C(O)/C=C/c1ccc(NC(=O)C2(NC(=O)c3ccc4c(C5CCCCC5)c(-c5ccccc5)n5c4c3CCC5C(=O)N3CCOCC3)CCCC2)cc1 (stereo not drawn)	0.03 to 1	1 to 10
C[C@@H]1CN(C(=O)C2CCc3c(C(=O)O)ccc4c(C5CCCCC5)c(-c5ccccc5)n2c34)C[C@H](C)O1 (stereo partly drawn)	> 1	1 to 10
COC(=O)c1ccc2c(C3CCCCC3)c(-c3ccccc3)n3c2c1CCC3C(=O)N1CCOCC1 (stereo not drawn)	> 1	> 0.12
O=C(O)c1ccc2c(C3CCCCC3)c(-c3ccccc3)n3c2c1OCC3	0.03 to 1	1 to 10
COC(=O)c1ccc2c(C3CCCCC3)c(-c3ccccc3)n3c2c1OC(C(=O)OC)C3 (stereo not drawn)	> 1	> 1
CN(C)S(=O)(=O)NC(=O)c1ccc2c(C3CCCCC3)c(-c3ccccc3)n3c2c1OCC3	1 to 10	1 to 10
CCOC(=O)/C=C/c1ccc(NC(=O)C2(NC(=O)c3ccc4c(C5CCCCC5)c(-c5ccc(OC)cc5)n5c4c3OCC5)CCCC2)cc1	0.03 to 1	> 1
O=C(NS(=O)(=O)C1CC1)c1ccc2c(C3CCCCC3)c(-c3ccccc3)n3c2c1CCC3C(=O)N1CCOCC1 (stereo not drawn)	1 to 10	> 10
COC(=O)c1ccc2c(C3CCCCC3)c(-c3ccccc3)n3c2c1OCC3	1 to 10	> 0.12
O=C(O)/C=C/c1ccc(NC(=O)C2(NC(=O)c3ccc4c(C5CCCCC5)c(-c5ccccc5)n5c4c3OCC5)CCCC2)cc1	0.03 to 1	0.03 to 1
O=C(O)c1ccc2c(C3CCCCC3)c(-c3ccccc3)n3c2c1C=CCC3	> 1	> 1
